From US20120014956A1, “METHODS AND COMPOSITIONS FOR PREDICTING RESPONSIVENESS TO TREATMENT WITH TNF-ALPHA INHIBITOR” (priority 2010, published 2012)

Key:
patients with early RA [1] = test: OPTIMA genetic substudy: ACR20/50/70 response at Week 26; type: in vivo, human; conditions: Week 26
Excerpt: (§1) The objective of the study was to prospectively analyze the association of 3 genetic risk factors (HLA-DRB1 shared epitope (SE), FcγRIIb, and IL-4R) for severe RA with clinical disease activity after 26 weeks of combination therapy with adalimumab (ADA) and methotrexate (MTX) or MTX monotherapy in a substudy of OPTIMA (A Multicentre, Randomized, Double Period, Double-Blind Study to Determine the Optimal Protocol for Treatment Initiation With Methotrexate and Adalimumab Combination Therapy in Patients With Early Rheumatoid Arthritis).
(§2) OPTIMA is an ongoing 78-week study with 26- and 52-week periods. Eligible patients had RA<1 year (1987-revised ACR classification), 28-joint Disease Activity Score (DAS28)>3.2, ≧6 swollen joints […], and ≧8 tender joints (SSJC66≧8). Patients had elevated erythrocyte sedimentation rate (ESR)≧28 mm/h or C-reactive protein (CRP)≧1.5 mg/dL and ≧1 of the following: >1 erosion, rheumatoid-factor positive (RF+), or anti-cyclic citrullinated peptide antibody positive (anti-CCP+). Exclusion criteria included prior exposure to systemic anti-TNF therapies, treatment with MTX or >2 disease-modifying anti-rheumatic drugs (DMARDs), other acute inflammatory joint diseases, or steroidal or surgical treatment within 4 weeks or 2 months, respectively.
(§3) In Period 2, those combination therapy responders, e.g., meeting DAS28 low disease activity (LDA) criteria (DAS28<3.2), were re-randomized 1:1 to remain on ADA+MTX or to “step down” to PBO+MTX for Weeks 26-78. In the initial PBO+MTX monotherapy group, subjects who achieved DAS28 LDA after Period 1 remained blinded on PBO+MTX for Period 2. […] Genetic data were associated with Week-26 clinical response.
(§4) For clinical assessment, the percentage of subjects achieving a 20%, 50%, and 70% improvement from baseline ACR scores was determined after Week 26 using a non-responder imputation approach. DAS28(CRP)^1 scores were evaluated at Week 26. The proportion of subjects achieving LDA (DAS28<3.2) and remission criteria (DAS28<2.6) was determined using a non-responder imputation approach.
(§5) For statistical analyses, Allele distribution between treatment groups was evaluated using the chi-square test, or Fisher's exact test in cases where data were sparse. The chi-square test was used to compare the proportion of subject achieving ACR20/50/70 and DAS28 LDA (<3.2) or remission (<2.6) within and between treatment groups.
(§6) MTX-naïve patients were randomized 1:1 to ADA (40 mg eow)+MTX (titrated to 20 mg/wk by Week 8) or placebo (PBO)+MTX for the first 26 weeks.
(§7) The percentage of subjects achieving a 50% improvement in the ACR score from baseline was determined at Week 26 using a non-responder imputation approach. The percentage of subjects achieving DAS28(CRP) remission (DAS28<2.6) was determined at Week 26 using a non-responder imputation approach.
(§8) Allele distribution between treatment groups was evaluated using the chi-square test, or Fisher's exact test in cases where data were sparse. Multivariate logistic regression was used to evaluate the effect of treatment, individual alleles, the interaction between treatment and genetic components, and baseline demographics and disease characteristics on clinical responses at 26 weeks.
(§9) MTX-naïve pts ≧18 years old with RA<1 year and active disease (DAS28>3.2, ESR≧28 mm/h or CRP≧1.5 mg/dL), and either >1 erosions, RF+, or anti-CCP+ were randomized to ADA+MTX (N=515) or PBO+MTX (N=517) for 26 wks. This analysis presents clinical outcomes at 26 weeks by HLA-DRB1 SE copy number (0×, 1×, or 2×), IL-4R I50V (AA, AG, or GG), and FcγRIIb I232T (TT, TC, CC) alleles. Non-responder imputation was used to calculate the percent of patients achieving ACR20/50/70 and DAS28 low disease activity (LDA, DAS28<3.2) and remission (DAS28<2.6). Multiple logistic regression was used to assess the influence of potential confounding baseline variables. […]

patients with early RA [2] = test: OPTIMA genetic substudy: DAS28 low disease activity (<3.2) and remission (<2.6) at Week 26; type: in vivo, human
Excerpt: as §1, §2, §3, §4, §5, §6, §7, §8, §9

SMILES: CN(Cc1cnc2nc(N)nc(N)c2n1)c1ccc(C(=O)N[C@@H](CCC(=O)O)C(=O)O)cc1 [PBO + MTX, methotrexate]
- ACR20 response, n/N subjects (patients with early RA [1]; HLA-DRB1 SE 2 copies): 36/69
- ACR50 response rate, % subjects (patients with early RA [1]; HLA-DRB1 SE 2 copies): (29%)
- ACR50 response, n/N subjects (patients with early RA [1]; HLA-DRB1 SE 2 copies): 20/69
- ACR70 response rate, % subjects (patients with early RA [1]; HLA-DRB1 SE 2 copies): (13%)
- ACR70 response, n/N subjects (patients with early RA [1]; HLA-DRB1 SE 2 copies): 9/69
- ACR50 response rate, % subjects (patients with early RA [1]; HLA-DRB1 SE 2 copies, listed as MTX): 29%
- ACR50 response rate, % subjects (patients with early RA [1]; IL-4R AA): (35%)
- ACR50 response, n/N subjects (patients with early RA [1]; IL-4R AA): 45/130
- ACR70 response rate, % subjects (patients with early RA [1]; IL-4R AA): (13%)
- ACR70 response, n/N subjects (patients with early RA [1]; IL-4R AA): 17/130
- ACR50 response rate, % subjects (patients with early RA [1]; IL-4R AG): (34%)
- ACR50 response, n/N subjects (patients with early RA [1]; IL-4R AG): 79/233
- ACR70 response rate, % subjects (patients with early RA [1]; IL-4R AG): (19%)
- ACR70 response, n/N subjects (patients with early RA [1]; IL-4R AG): 42/233
- ACR50 response rate, % subjects (patients with early RA [1]; IL-4R GG): (38%)
- ACR50 response, n/N subjects (patients with early RA [1]; IL-4R GG): 33/88
- ACR70 response rate, % subjects (patients with early RA [1]; IL-4R GG): (18%)
- ACR70 response, n/N subjects (patients with early RA [1]; IL-4R GG): 16/88
- LDA DAS28 <3.2, % subjects (patients with early RA [2]; HLA-DRB1 SE 0 copies): (30%)
- LDA DAS28 <3.2, n/N subjects (patients with early RA [2]; HLA-DRB1 SE 0 copies): 49/167
- Remission DAS28 <2.6, % subjects (patients with early RA [2]; HLA-DRB1 SE 0 copies): (17%)
- Remission DAS28 <2.6, n/N subjects (patients with early RA [2]; HLA-DRB1 SE 0 copies): 28/167
- LDA DAS28 <3.2, % subjects (patients with early RA [2]; HLA-DRB1 SE 1 copy): (23%)
- LDA DAS28 <3.2, n/N subjects (patients with early RA [2]; HLA-DRB1 SE 1 copy): 50/215
- Remission DAS28 <2.6, % subjects (patients with early RA [2]; HLA-DRB1 SE 1 copy): (16%)
- Remission DAS28 <2.6, n/N subjects (patients with early RA [2]; HLA-DRB1 SE 1 copy): 35/215
- LDA DAS28 <3.2, % subjects (patients with early RA [2]; HLA-DRB1 SE 2 copies): (24%)
- LDA DAS28 <3.2, n/N subjects (patients with early RA [2]; HLA-DRB1 SE 2 copies): 16/69
- Remission DAS28 <2.6, % subjects (patients with early RA [2]; HLA-DRB1 SE 2 copies): (16%)
- Remission DAS28 <2.6, n/N subjects (patients with early RA [2]; HLA-DRB1 SE 2 copies): 11/69
- LDA DAS28 <3.2, % subjects (patients with early RA [2]; IL-4R AA): (24%)
- LDA DAS28 <3.2, n/N subjects (patients with early RA [2]; IL-4R AA): 31/130
- Remission DAS28 <2.6, % subjects (patients with early RA [2]; IL-4R AA): (14%)
- Remission DAS28 <2.6, n/N subjects (patients with early RA [2]; IL-4R AA): 18/130
- LDA DAS28 <3.2, % subjects (patients with early RA [2]; IL-4R AG): (25%)
- LDA DAS28 <3.2, n/N subjects (patients with early RA [2]; IL-4R AG): 58/233
- Remission DAS28 <2.6, % subjects (patients with early RA [2]; IL-4R AG): (16%)
- Remission DAS28 <2.6, n/N subjects (patients with early RA [2]; IL-4R AG): 37/233
- LDA DAS28 <3.2, % subjects (patients with early RA [2]; IL-4R GG): (30%)
- LDA DAS28 <3.2, n/N subjects (patients with early RA [2]; IL-4R GG): 26/88
- Remission DAS28 <2.6, % subjects (patients with early RA [2]; IL-4R GG): (22%)
- Remission DAS28 <2.6, n/N subjects (patients with early RA [2]; IL-4R GG): 19/88
